Consider six molecules from ChEMBL document CHEMBL1147392, “Antimicrobial compounds from Petalostemum purpureum” (1993).

In general, MIC refers to the lowest concentration found to suppress growth. A higher MIC goes with a need for much substance.

In one assay the test system is Staphylococcus aureus. The assay is described as follows: Antimicrobial activity against Staphylococcus aureus ATCC 6538 by twofold serial macrobroth dilution assay.
Assay [1] relates to Mycobacterium intracellulare. The assay is described as follows: Antimicrobial activity against Mycobacterium intracellular ATCC 23068 by twofold serial macrobroth dilution assay. In kind it is functional. For orientation: Broth dilution looks for growth in wells or tubes with falling amounts of substance.
The test system of another assay is Candida albicans. The assay is described as follows: Antimicrobial activity against Candida albicans NIH B311 by twofold serial macrobroth dilution assay. In kind it is functional.
The test system of a further assay is Cryptococcus neoformans. The assay is described as follows: Antimicrobial activity against Cryptococcus neoformans ATCC 32264 by twofold serial macrobroth dilution assay. In kind it is functional.
A further assay deals with Bacillus subtilis. The assay is described as follows: Antimicrobial activity against Bacillus subtilis ATCC 6633 by twofold serial macrobroth dilution assay. In kind it is functional.
The next assay relates to Escherichia coli. The assay is described as follows: Antimicrobial activity against Escherichia coli ATCC 10536 by twofold serial macrobroth dilution assay. In kind it is functional.

SMILES strings stand for the structures. Converted amounts (≈) assume the structure as drawn.

Take `COc1cc(CC=C(C)C)c(-c2oc3c(CC=C(C)C)c(OC)cc(OC)c3c(=O)c2OC)c(CC=C(C)C)c1OC`: the MIC in the assay with Staphylococcus aureus is 12.5 µg/mL (≈ 21.7 µM); in assay [1], 25 µg/mL (≈ 43.3 µM); with Candida albicans, 25 µg/mL (≈ 43.3 µM).

On to `COc1cc(OC)c2c(c1CC=C(C)C)O[C@H](c1c(CC=C(C)C)cc(OC)c(OC)c1CC=C(C)C)[C@@H](O)C2=O`, for which the MIC with Staphylococcus aureus was determined as 12.5 µg/mL (≈ 22.1 µM); in assay [1] it was 12.5 µg/mL (≈ 22.1 µM); with Candida albicans, 100 µg/mL (≈ 177 µM).

In assay [1], `COc1cc(CC=C(C)C)c([C@H]2Oc3c(CC=C(C)C)c(OC)cc(O)c3C(=O)[C@@H]2O)c(CC=C(C)C)c1O` had a minimal inhibitory concentration (MIC) of 25 µg/mL (≈ 46.6 µM).

For `C[C@@H]1[C@H](O)[C@@H](C)/C=C/C=C/C=C/C=C/C=C/C=C/C=C/[C@H](O[C@@H]2O[C@H](C)[C@@H](O)[C@H](N)[C@@H]2O)C[C@@H]2O[C@](O)(C[C@@H](O)C[C@@H](O)[C@H](O)CC[C@@H](O)C[C@@H](O)CC(=O)O[C@H]1C)C[C@H](O)[C@H]2C(=O)O` [AMPHOTERICIN B], the minimal inhibitory concentration (MIC) stood at 0.39 µg/mL (≈ 0.422 µM) in the assay on Candida albicans and 0.2 µg/mL (≈ 0.216 µM) in the assay on Cryptococcus neoformans.

Regarding `CC(C)=CCc1cc(O)c(O)c(CC=C(C)C)c1[C@H]1Oc2c(CC=C(C)C)c(O)cc(O)c2C(=O)[C@@H]1O` [PETALOSTEMUMOL], the MIC against Bacillus subtilis came to 0.78 µg/mL (≈ 1.53 µM); in the assay with Escherichia coli, 6.25 µg/mL (≈ 12.3 µM); against Staphylococcus aureus it was 3.12 µg/mL (≈ 6.13 µM); in assay [1] it was 6.25 µg/mL (≈ 12.3 µM); with Candida albicans, 12.5 µg/mL (≈ 24.6 µM); with Cryptococcus neoformans it was 25 µg/mL (≈ 49.2 µM).

`CN[C@@H]1[C@H](O[C@H]2[C@H](O[C@H]3[C@H](O)[C@@H](O)[C@H](N=C(N)N)[C@@H](O)[C@@H]3N=C(N)N)O[C@@H](C)[C@]2(O)C=O)O[C@@H](CO)[C@H](O)[C@H]1O` [STREPTOMYCIN]: the MIC in the assay with Bacillus subtilis worked out at 1.56 µg/mL (≈ 2.68 µM); with Escherichia coli it was 3.12 µg/mL (≈ 5.36 µM); against Staphylococcus aureus it was 6.25 µg/mL (≈ 10.7 µM); in assay [1], 1.56 µg/mL (≈ 2.68 µM).
